Patent US10059713B2 (Takeda Pharmaceutical Company Limited, priority 2014, dated 2018)

Target: human GPR43 (Homo sapiens (Human), UniProt O15552)
Experiment: Ca-Flux functional assay: determination of agonist/positive allosteric modulator (PAM) activity
Type: cell-based
Conditions: CHO-K1 Gα16 cells stably expressing human GPR43; compound added with EC20 sodium acetate; intracellular Ca2+ by FLIPR; does not distinguish agonist from PAM
Protocol: Ca-Flux Functional Assay: Determination of Agonist/Positive Allosteric Modulator (PAM) Activity
GPR43 agonist/PAM activity was determined by measuring changes in intracellular calcium levels using a Ca^2+ sensitive fluorescent dye. The changes in fluorescent signal were monitored by FLIPR (manufactured by Molecular Devices). GPR43 mediated increases in intracellular Ca^2+ concentration were readily detected upon activation with sodium acetate. Prior to the assay (24 hours), CHO-K1 Gα16 cells stably expressing human GPR43 were-seeded in cell culture medium in black, clear-bottom 384-well plates (Corning Inc) and grown overnight at 37° C., 5% CO2. On the day of the assay, cell culture media was removed and cells were loaded with Calcium 5 Dye (Molecular Devices) diluted in HBSS containing 25 mM HEPES, 2.5 mM Probenecid, 0.1% BSA for 1 hour at 37° C., 5% CO2. 10 point half log concentration response curves of sodium acetate from 10 mM were conducted prior to the testing of compounds to calculate the sodium acetate concentration that produces 20% of the maximal response (EC20). Test compounds (at 10 point half log concentration response curves from 10 μM) were added in the presence of sodium acetate to achieve a final concentration that produces approximately 20% maximal response as calculated from the previous experiment. The changes in fluorescent signal were monitored by FLIPR upon addition of the compound/EC20 sodium acetate mix. The EC50 values were determined from ten point concentration response curves. Curves were generated using the average of two wells for each data point.
The above assay detects both GPR43 receptor agonists and positive allosteric modulators of the GPR43 receptor, without distinguishing between the two. Activity in either regard is useful in the treatment of conditions associated with GPR43 receptor activity.

Sequence of human GPR43 (O15552 whole entry): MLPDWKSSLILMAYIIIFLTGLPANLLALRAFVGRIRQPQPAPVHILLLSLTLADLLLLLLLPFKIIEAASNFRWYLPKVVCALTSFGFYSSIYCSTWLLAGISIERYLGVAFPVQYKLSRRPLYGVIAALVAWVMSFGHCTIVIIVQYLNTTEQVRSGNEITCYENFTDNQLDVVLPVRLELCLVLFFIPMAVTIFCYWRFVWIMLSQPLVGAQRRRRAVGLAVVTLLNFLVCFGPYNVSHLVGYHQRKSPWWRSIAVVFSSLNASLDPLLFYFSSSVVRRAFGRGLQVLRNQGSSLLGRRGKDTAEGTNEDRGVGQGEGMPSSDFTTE

| Structure (SMILES) | EC50 [nM] |
| --- | --- |
| CCC1(CC)CN(c2ncnc3c(S(=O)(=O)c4ccccc4)c(N)[nH]c23)CCO1 [Example 103, 7-(benzenesulfonyl)-4-(2,2-diethylmorpholin-4-yl)-5H-pyrrolo[3,2-d]pyrimidin-6-amine] | 36 |
| CC1CN(c2ncnc3c(S(=O)(=O)Cc4ccccc4)c(N)[nH]c23)CCO1 (centres unmarked) [Example 125, 4-(2-methylmorpholin-4-yl)-7-phenylmethanesulfonyl-5H-pyrrolo[3,2-d]pyrimidin-6-amine] | 5520 |
| COc1cc(F)ccc1S(=O)(=O)c1c(N)[nH]c2c(N3CCOC(C)C3)ncnc12 (centres unmarked) [Example 222, 7-(4-fluoro-2-methoxybenzenesulfonyl)-4-(2-methylmorpholin-4-yl)-5H-pyrrolo[3,2-d]pyrimidin-6-amine] | 4040 |
| Nc1[nH]c2c(OC3CCOCC3)ncnc2c1S(=O)(=O)c1ccccc1 [Example 166, 7-(benzenesulfonyl)-4-(oxan-4-yloxy)-5H-pyrrolo[3,2-d]pyrimidin-6-amine] | 1640 |
| Cc1nc(OCC(C)C)c2[nH]c(N)c(S(=O)(=O)c3ccccc3)c2n1 [Example 251, 7-(benzenesulfonyl)-2-methyl-4-(2-methylpropoxy)-5H-pyrrolo[3,2-d]pyrimidin-6-amine] | 49 |
| CN(CC(F)F)c1ncnc2c(S(=O)(=O)c3ccccc3)c(N)[nH]c12 [Example 96, 7-(benzenesulfonyl)-4-N-(2,2-difluoroethyl)-4 N-methyl-5H-pyrrolo[3,2-d]pyrimidine-4,6-diamine] | 162 |
| Nc1[nH]c2c(OC3CCC(F)(F)CC3)ncnc2c1S(=O)(=O)c1ccccc1 [Example 211, 7-(benzenesulfonyl)-4-[(4,4-difluorocyclohexyl)oxy]-5H-pyrrolo[3,2-d]pyrimidin-6-amine] | 34 |
| Cc1nc(N2CCC(F)(F)CC2)c2[nH]c(N)c(S(=O)(=O)c3cccc(F)c3)c2n1 [Example 181, 4-(4,4-difluoropiperidin-1-yl)-7-(3-fluorobenzenesulfonyl)-2-methyl-5H-pyrrolo[3,2-d]pyrimidin-6-amine] | 82 |
| Cc1nc(N(C)C(C)C)c2[nH]c(N)c(S(=O)(=O)c3cccc(F)c3)c2n1 [Example 193, 7-(3-fluorobenzenesulfonyl)-2,4-N-dimethyl-4-N-(propan-2-yl)-5H-pyrrolo[3,2-d]pyrimidine-4,6-diamine] | 270 |
| COc1ccc(S(=O)(=O)c2c(N)[nH]c3c(N4CCO[C@@H](C(F)(F)F)C4)nc(C)nc23)c(F)c1 [Example 293, 7-(2-fluoro-4-methoxybenzenesulfonyl)-2-methyl-4-[(2R)-2-(trifluoromethyl)morpholin-4-yl]-5H-pyrrolo[3,2-d]pyrimidin-6-amine] | 2 |
| Cc1nc(N2CCOC(C(F)(F)F)C2)c2[nH]c(N)c(S(=O)(=O)c3ccccc3F)c2n1 (centres unmarked) [Example 231, 7-(2-fluorobenzenesulfonyl)-2-methyl-4-[2-(trifluoromethyl)morpholin-4-yl]-5H-pyrrolo[3,2-d]pyrimidin-6-amine] | 2 |
| COCC1CN(c2ncnc3c(S(=O)(=O)c4ccccc4)c(N)[nH]c23)CCO1 (centres unmarked) [Example 81, 7-(benzenesulfonyl)-4-[2-(methoxymethyl)morpholin-4-yl]-5H-pyrrolo[3,2-d]pyrimidin-6-amine] | 1210 |
| Cc1nc(N2CCOC(C)(C)C2)c2[nH]c(N)c(S(=O)(=O)c3ccccc3)c2n1 [Example 139, 7-(benzenesulfonyl)-4-(2,2-dimethylmorpholin-4-yl)-2-methyl-5H-pyrrolo[3,2-d]pyrimidin-6-amine] | 13 |
| Cc1nc(N2CCC3(CC2)CC3)c2[nH]c(N)c(S(=O)(=O)c3ccccc3)c2n1 [Example 207, 4-{6-azaspiro[2.5]octan-6-yl}-7-(benzenesulfonyl)-2-methyl-5H-pyrrolo[3,2-d]pyrimidin-6-amine] | 27 |
| Nc1[nH]c2c(N3CCOC(C4CC4)C3)ncnc2c1S(=O)(=O)c1ccccc1 (centres unmarked) [Example 80, 7-(benzenesulfonyl)-4-(2-cyclopropylmorpholin-4-yl)-5H-pyrrolo[3,2-d]pyrimidin-6-amine] | 133 |
| Nc1[nH]c2c(OC3CCC3)ncnc2c1S(=O)(=O)c1ccccc1 [Example 167, 7-(benzenesulfonyl)-4-cyclobutoxy-5H-pyrrolo[3,2-d]pyrimidin-6-amine] | 76 |
| CSc1nc(N2CCOC(C)C2)c2[nH]c(N)c(S(=O)(=O)c3cccc(F)c3)c2n1 (centres unmarked) [Example 264, 7-(3-fluorobenzenesulfonyl)-4-(2-methylmorpholin-4-yl)-2-(methylsulfanyl)-5H-pyrrolo[3,2-d]pyrimidin-6-amine] | 45 |
| CN(c1ncnc2c(S(=O)(=O)c3ccccc3)c(N)[nH]c12)C1CCOCC1 [Example 115, 7-(benzenesulfonyl)-4-N-methyl-4-N-(oxan-4-yl)-5H-pyrrolo[3,2-d]pyrimidine-4,6-diamine] | 798 |

| Structure (SMILES) | EC50 [nM] |
| --- | --- |
| CNc1[nH]c2c(C3CCCCC3)ncnc2c1S(=O)(=O)c1ccccc1 [Example 35, 7-(benzenesulfonyl)-4-cyclohexyl-N-methyl-5H-pyrrolo[3,2-d]pyrimidin-6-amine] | 7520 |
| COc1ccc(S(=O)(=O)c2c(N)[nH]c3c(N4CCOC(C)C4)ncnc23)cc1F (centres unmarked) [Example 124, 7-(3-fluoro-4-methoxybenzenesulfonyl)-4-(2-methylmorpholin-4-yl)-5H-pyrrolo[3,2-d]pyrimidin-6-amine] | 63 |
| Nc1[nH]c2c(N3CCCCCC3)ncnc2c1S(=O)(=O)c1ccccc1 [Example 48, 4-(azepan-1-yl)-7-(benzenesulfonyl)-5H-pyrrolo[3,2-d]pyrimidin-6-amine] | 209 |
| CCN(C)c1ncnc2c(S(=O)(=O)c3ccccc3)c(N)[nH]c12 [Example 97, 7-(benzenesulfonyl)-4-N-ethyl-4-N-methyl-5H-pyrrolo[3,2-d]pyrimidine-4,6-diamine] | 447 |
| CCNc1ncnc2c(S(=O)(=O)c3ccccc3)c(N)[nH]c12 [Example 65, 7-(benzenesulfonyl)-4-N-ethyl-5H-pyrrolo[3,2-d]pyrimidine-4,6-diamine] | 6820 |
| Cc1ccccc1-c1ncnc2c(S(=O)(=O)c3ccccc3)c(N)[nH]c12 [Example 108, 7-(benzenesulfonyl)-4-(2-methylphenyl)-5H-pyrrolo[3,2-d]pyrimidin-6-amine] | 92 |
| CC1CN(c2ncnc3c(S(=O)(=O)c4ccccc4)c(N)[nH]c23)C(C)CO1 (centres unmarked) [Example 85, 7-(benzenesulfonyl)-4-(2,5-dimethylmorpholin-4-yl)-5H-pyrrolo[3,2-d]pyrimidin-6-amine] | 19 |
| Nc1[nH]c2c(C3=CCCCC3)ncnc2c1S(=O)(=O)c1ccccc1F [Example 38, 4-(cyclohex-1-en-t-yl)-7-[(2-fluorobenzene)sulfonyl]-5H-pyrrolo[3,2-d]pyrimidin-6-amine] | 16 |
| CC1CN(c2ncnc3c(S(=O)(=O)c4ccccc4)c(N)[nH]c23)CCO1 (centres unmarked) [Example 52, 7-(benzenesulfonyl)-4-(2-methylmorpholin-4-yl)-5H-pyrrolo[3,2-d]pyrimidin-6-amine] | 43 |
| Nc1[nH]c2c(C3CCCCC3)nncc2c1S(=O)(=O)c1ccccc1 [Example 228, 3-(benzenesulfonyl)-7-cyclohexyl-1H-pyrrolo[2,3-d]pyridazin-2-amine] | 256 |
| Cc1ccc(S(=O)(=O)c2c(N)[nH]c3c(C4=CCCCC4)ncnc23)cc1 [Example 42, 4-(cyclohex-1-en-1-yl)-7-[(4-methylbenzene)sulfonyl]-5H-pyrrolo[3,2-d]pyrimidin-6-amine] | 32 |
| Nc1[nH]c2c(C3=CCCCC3)ncnc2c1S(=O)(=O)CC1CCOCC1 [Example 109, 4-(cyclohex-1-en-1-yl)-7-(oxan-4-ylmethanesulfonyl)-5H-pyrrolo[3,2-d]pyrimidin-6-amine] | 5020 |
| Cc1ccc(S(=O)(=O)c2c(N)[nH]c3c(N4CCOC(C)C4)ncnc23)c(F)c1 (centres unmarked) [Example 146, 7-(2-fluoro-4-methylbenzenesulfonyl)-4-(2-methylmorpholin-4-yl)-5H-pyrrolo[3,2-d]pyrimidin-6-amine] | 9 |
| Nc1[nH]c2c(N3CCOC4(CCCC4)C3)ncnc2c1S(=O)(=O)c1ccccc1 [Example 102, 7-(benzenesulfonyl)-4-{6-oxa-9-azaspiro[4.5]decan-9-yl}-5H-pyrrolo[3,2-d]pyrimidin-6-amine] | 18 |
| CC1CN(c2ncnc3c(S(=O)(=O)c4cccnc4)c(N)[nH]c23)CCO1 (centres unmarked) [Example 122, 4-(2-methylmorpholin-4-yl)-7-(pyridine-3-sulfonyl)-5H-pyrrolo[3,2-d]pyrimidin-6-amine] | 625 |
| O=S(=O)(c1ccccc1)c1c(NC2CCC(F)(F)CC2)[nH]c2ncccc12 [Example 1, 3-(benzenesulfonyl)-N-(4,4-difluorocyclohexyl)-1H-pyrrolo[2,3-b]pyridin-2-amine] | 5500 |
| Nc1[nH]c2c(N3CCCC4(COC4)C3)ncnc2c1S(=O)(=O)c1ccccc1 [Example 150, 7-(benzenesulfonyl)-4-{2-oxa-6-azaspiro[3.5]nonan-6-yl}-5H-pyrrolo[3,2-d]pyrimidin-6-amine] | 933 |
